Experimental data from patent publication US20210129406A1, “DRUG SOLVATES IN THERMAL PROCESSES TO MAKE SOLID DISPERSIONS AT LOWER PROCESSING TEMPERATURES” (BOARD OF REGENTS, THE UNIVERSITY OF TEXAS SYSTEM, priority 2019, published 2021).

How the values were obtained:
[1] = Solid-state stability of carbamazepine dihydrate (PXRD) at room temperature, 56% relative humidity; assay type: physicochemical
Experimental: CBZ dihydrate was prepared by suspending CBZ anhydrate in water for 24 hours.

[2] = cited from earlier work

stability of the dihydrate form ([1]; 56% relative humidity at room temperature throughout the whole experiments) | stability of the dihydrate form (PXRD) ([1]; 3 days at room temperature 56% relative humidity) | Structure (SMILES) | pKa [2]
stayed stable | stayed stable | NC(=O)N1c2ccccc2C=Cc2ccccc21 [carbamazepine dihydrate] | –
– | – | NC(=O)N1c2ccccc2C=Cc2ccccc21 [carbamazepine] | 13.4
